Laboratory results from patent publication US10294202B2, “Pyrrolidinones as herbicides” (FMC Corporation, priority 2013, dated 2019).

Columns and labels:
barnyardgrass [1] = experiment: Test A pre-/postemergence herbicide test; type: in vivo, Echinochloa crus-galli; settings: for Plant response rating, Barnyardgrass: 0 to 100 scale
Method in brief: (§1)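 Seeds sown in loam soil/sand blend received a preemergence directed soil spray of test chemical in non-phytotoxic solvent with surfactant; postemergence plants (2–10 cm, one- to two-leaf stage) were sprayed with the same formulation. After about 10 days in greenhouse, injury was rated visually versus untreated controls, 0 (no effect) to 100 (complete control).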

kochia = experiment: Test A pre-/postemergence herbicide test; type: in vivo, Kochia scoparia; settings: for Plant response rating, Kochia: 0 to 100 scale
Method in brief: as §1

ragweed = experiment: Test A pre-/postemergence herbicide test; type: in vivo, Ambrosia elatior; settings: for Plant response rating, Ragweed: 0 to 100 scale
Method in brief: as §1

ryegrass, Italian = experiment: Test A pre-/postemergence herbicide test; type: in vivo, Lolium multiflorum; settings: for Plant response rating, Ryegrass, Italian: 0 to 100 scale
Method in brief: as §1

giant foxtail = experiment: Test A pre-/postemergence herbicide test; type: in vivo, Setaria faberii; settings: for Plant response rating, Foxtail, Giant: 0 to 100 scale
Method in brief: as §1

pigweed = experiment: Test A pre-/postemergence herbicide test; type: in vivo, Amaranthus retroflexus; settings: for Plant response rating, Pigweed: 0 to 100 scale
Method in brief: as §1

wheat = experiment: Test A pre-/postemergence herbicide test; type: in vivo, Triticum aestivum; settings: Postemergence; for Plant response rating, Wheat: 125 g ai/ha, 0 to 100 scale, 0 is no effect, 100 is complete control; for Wheat plant response rating (0 to 100 scale, 0 is no effect, 100 is complete control): 500 g ai/ha
Method in brief: as §1

corn = experiment: Test A pre-/postemergence herbicide test; type: in vivo, Zea mays; settings: Postemergence; for Plant response rating, Corn: 125 g ai/ha, 0 to 100 scale, 0 is no effect, 100 is complete control; for Corn plant response rating (0 to 100 scale, 0 is no effect, 100 is complete control): 500 g ai/ha
Method in brief: as §1

blackgrass = experiment: Test A postemergence herbicide test; type: in vivo, Alopecurus myosuroides; settings: for Plant response rating, Blackgrass: 125 g ai/ha, 0 to 100 scale, 0 is no effect, 100 is complete control; for Blackgrass plant response rating (0 to 100 scale, 0 is no effect, 100 is complete control): 500 g ai/ha
Method in brief: (§2)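 Young potted plants in a loam–sand mix, one- to two-leaf stage and 2–10 cm tall, receive the test chemical postemergence and stay in a greenhouse for approximately 10 days. Injury is then judged by eye against untreated plants, scored 0 (none) to 100 (complete control).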

galium = experiment: Test A postemergence herbicide test; type: in vivo, Galium aparine; settings: for Plant response rating, Galium: 125 g ai/ha, 0 to 100 scale, 0 is no effect, 100 is complete control; for Galium plant response rating (0 to 100 scale, 0 is no effect, 100 is complete control): 500 g ai/ha
Method in brief: as §2

rice = experiment: Test B flooded paddy test; type: in vivo, Oryza sativa; settings: Flood, scale of 0 to 100 where 0 is no effect and 100 is complete control
Method in brief: (§3)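 In-water application to pots flooded 3 cm deep, plants at 2-leaf stage. Held in greenhouse 13–15 days at constant flood depth. Scored 0–100 by eye against controls.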

sedge, umbrella = experiment: Test B flooded paddy test; type: in vivo, Cyperus difformis; settings: Flood, scale of 0 to 100 where 0 is no effect and 100 is complete control
Method in brief: as §3

ducksalad = experiment: Test B flooded paddy test; type: in vivo, Heteranthera limosa; settings: Flood, scale of 0 to 100 where 0 is no effect and 100 is complete control
Method in brief: as §3

barnyardgrass [2] = experiment: Test B flooded paddy test; type: in vivo, Echinochloa crus-galli; settings: Flood, scale of 0 to 100 where 0 is no effect and 100 is complete control
Method in brief: as §3

[3] = 125 g ai/ha, visual rating, 0 no effect, 100 complete control, approximately 10 days, preemergence
[4] = Postemergence, 125 g ai/ha, 0 is no effect, 100 is complete control
[5] = preemergence, 500 g ai/ha, 0 is no effect and 100 is complete control

SMILES	Plant response rating, Barnyardgrass (barnyardgrass [1]; [3])	Plant response rating, Barnyardgrass (barnyardgrass [1]; [4])	Barnyardgrass plant response rating (0 to 100 scale, 0 is no effect, 100 is complete control) (barnyardgrass [1]; Postemergence, 500 g ai/ha)	Plant response rating, Barnyardgrass (barnyardgrass [1]; [5])	Plant response rating, Kochia (kochia; [3])	Plant response rating, Kochia (kochia; [4])	Kochia plant response rating (0 to 100 scale, 0 is no effect, 100 is complete control) (kochia; Postemergence, 500 g ai/ha)	Plant response rating, Kochia (kochia; [5])	Plant response rating, Ragweed (ragweed; [3])	Plant response rating, Ragweed (ragweed; [4])	Ragweed plant response rating (0 to 100 scale, 0 is no effect, 100 is complete control) (ragweed; Postemergence, 500 g ai/ha)	Plant response rating, Ragweed (ragweed; [5])	Plant response rating, Ryegrass, Italian (ryegrass, Italian; [3])	Plant response rating, Ryegrass, Italian (ryegrass, Italian; [4])	Ryegrass, Italian plant response rating (0 to 100 scale, 0 is no effect, 100 is complete control) (ryegrass, Italian; Postemergence, 500 g ai/ha)	Plant response rating, Ryegrass, Italian (ryegrass, Italian; [5])	Plant response rating, Foxtail, Giant (giant foxtail; [3])	Plant response rating, Foxtail, Giant (giant foxtail; [4])	Foxtail, Giant plant response rating (0 to 100 scale, 0 is no effect, 100 is complete control) (giant foxtail; Postemergence, 500 g ai/ha)	Plant response rating, Foxtail, Giant (giant foxtail; [5])	other results
CCCN1CC(c2ccc(C(F)(F)F)cc2)C(C(=O)Nc2ccccc2F)C1=O (stereo not drawn) [Compound 181]	0	0	0	0	50	10	70	80	0	0	0	0	0	0	0	0	10	0	0	70	Plant response rating, Pigweed (pigweed; [3]): 0; Plant response rating, Pigweed (pigweed; [4]): 0; Pigweed plant response rating (0 to 100 scale, 0 is no effect, 100 is complete control) (pigweed; Postemergence, 500 g ai/ha): 50; Plant response rating, Pigweed (pigweed; [5]): 0; Plant response rating, Wheat (wheat): 0; Wheat plant response rating (0 to 100 scale, 0 is no effect, 100 is complete control) (wheat): 0; Plant response rating, Corn (corn): 0; Corn plant response rating (0 to 100 scale, 0 is no effect, 100 is complete control) (corn): 0; Plant response rating, Blackgrass (blackgrass): 40; Blackgrass plant response rating (0 to 100 scale, 0 is no effect, 100 is complete control) (blackgrass): 50; Plant response rating, Galium (galium): 0; Galium plant response rating (0 to 100 scale, 0 is no effect, 100 is complete control) (galium): 0; Plant response rating, Rice (rice; 500 g ai/ha): 0; Plant response rating, Sedge, Umbrella (sedge, umbrella; 500 g ai/ha): 0; Plant response rating, Ducksalad (ducksalad; 500 g ai/ha): 0; Plant response rating, Barnyardgrass (barnyardgrass [2]; 500 g ai/ha): 0
CCCN1CC(c2ccc(C(F)(F)F)cc2)C(C(=O)Nc2cccc(F)c2F)C1=O (stereo not drawn) [Compound 182]	0	0	0	0	0	0	0	0	0	0	0	0	0	0	0	0	50	0	10	70	Plant response rating, Pigweed (pigweed; [3]): 0; Plant response rating, Pigweed (pigweed; [4]): 0; Pigweed plant response rating (0 to 100 scale, 0 is no effect, 100 is complete control) (pigweed; Postemergence, 500 g ai/ha): 0; Plant response rating, Pigweed (pigweed; [5]): 0; Plant response rating, Wheat (wheat): 0; Wheat plant response rating (0 to 100 scale, 0 is no effect, 100 is complete control) (wheat): 0; Plant response rating, Corn (corn): 0; Corn plant response rating (0 to 100 scale, 0 is no effect, 100 is complete control) (corn): 0; Plant response rating, Blackgrass (blackgrass): 0; Blackgrass plant response rating (0 to 100 scale, 0 is no effect, 100 is complete control) (blackgrass): 0; Plant response rating, Galium (galium): 0; Galium plant response rating (0 to 100 scale, 0 is no effect, 100 is complete control) (galium): 0; Plant response rating, Rice (rice; 500 g ai/ha): 0; Plant response rating, Sedge, Umbrella (sedge, umbrella; 500 g ai/ha): 0; Plant response rating, Ducksalad (ducksalad; 500 g ai/ha): 30; Plant response rating, Barnyardgrass (barnyardgrass [2]; 500 g ai/ha): 0
O=C1NCC(c2cccc(S(F)(F)(F)(F)F)c2)C1C(=O)Nc1cccc(F)c1F (stereo not drawn) [Compound 214]	70	60	70	80	0	0	40	80	0	0	0	0	0	10	30	0	80	80	90	90	Plant response rating, Pigweed (pigweed; [3]): 0; Plant response rating, Pigweed (pigweed; [4]): 0; Pigweed plant response rating (0 to 100 scale, 0 is no effect, 100 is complete control) (pigweed; Postemergence, 500 g ai/ha): 50; Plant response rating, Pigweed (pigweed; [5]): 70; Plant response rating, Wheat (wheat): 0; Wheat plant response rating (0 to 100 scale, 0 is no effect, 100 is complete control) (wheat): 50; Plant response rating, Corn (corn): 30; Corn plant response rating (0 to 100 scale, 0 is no effect, 100 is complete control) (corn): 50; Plant response rating, Blackgrass (blackgrass): 40; Blackgrass plant response rating (0 to 100 scale, 0 is no effect, 100 is complete control) (blackgrass): 70; Plant response rating, Galium (galium): 40; Galium plant response rating (0 to 100 scale, 0 is no effect, 100 is complete control) (galium): 70; Plant response rating, Rice (rice; 1000 g ai/ha): 20; Plant response rating, Sedge, Umbrella (sedge, umbrella; 1000 g ai/ha): 0; Plant response rating, Ducksalad (ducksalad; 1000 g ai/ha): 90; Plant response rating, Barnyardgrass (barnyardgrass [2]; 1000 g ai/ha): 75
